Values belong to the compound of their own block, whether it stands above or below them.
Tests used:
[1] = system: MDA-MB-231; experiment: Anti-CSC activity against human MDA-MB-231 cells incubated for 48 hrs by MTT assay; type: functional, cell-based; conditions: MDA-MB-231, 48 h
[2] = Cytotoxicity against human PBMC by MTT assay; type: tissue-based
[3] = system: MDA-MB-231; experiment: Anti-CSC activity against human MDA-MB-231 cells assessed as inhibition of sphere formation at 250 nM by phase-contrast microscopy; type: functional
[4] = system: PC-3; experiment: Anti-CSC activity against human PC-3 cells incubated for 1 week by alamarblue staining based soft agar method; type: functional, cell-based; conditions: PC-3, 168 h
[5] = system: PC-3; experiment: Anti-CSC activity against human PC-3 cells assessed as inhibition of sphere formation at 2.5 uM by phase-contrast microscopy relative to control; type: functional
[6] = system: PC-3; experiment: Anti-CSC activity against human PC-3 cells by soft agar assay; type: functional, cell-based
[7] = system: DU-145; experiment: Anti-CSC activity against human DU-145 cells by MTT assay; type: functional, cell-based
[8] = system: PC-3; experiment: Anti-CSC activity against human PC-3 cells by MTT assay; type: functional, cell-based
[9] = system: MDA-MB-231; experiment: Anti-CSC activity against human MDA-MB-231 cells by soft agar assay; type: functional, cell-based
[10] = system: MDA-MB-231; experiment: Anti-CSC activity against human MDA-MB-231 cells by MTT assay; type: functional, cell-based
[11] = system: PC-3; experiment: Anti-CSC activity against human PC-3 cells assessed as inhibition of sphere formation at 25 nM by sphere assay relative to control; type: functional
[12] = system: DU-145; experiment: Anti-CSC activity against human DU145 cells incubated for 1 week with intermittent feeding of medium after day 3 by alamarblue staining based soft agar method; type: functional, cell-based
[13] = system: MG-63; experiment: Cytotoxicity against human MG-63 cells incubated for 48 hrs by CCK-8 assay; type: functional, cell-based; conditions: MG-63, 48 h
[14] = Selectivity ratio of IC50 for human hFOB1.19 cells to IC50 for human MG-63 cells
[15] = Selectivity ratio of IC50 for […] to IC50 for human MG-63 cells
[16] = system: HOS-TE85; experiment: Cytotoxicity against human MNNG/HOS cells incubated for 48 hrs by CCK-8 assay; type: functional, cell-based; conditions: HOS-TE85, 48 h
[17] = system: T47D; experiment: Anti-CSC activity against human T47D cells incubated for 48 hrs by MTT assay; type: functional, cell-based
[18] = system: Homo sapiens; experiment: Anti-CSC activity in patient with pSTAT3-positive tumors assessed as overall survival time at 480 mg, po administered bid with interval of 12 hrs; type: functional

IC50 [1]: 1470 nM | IC50 [4]: 12.1 µM
SMILES: O=C(Cn1cc(COc2ccc3ccccc3c2)nn1)Nc1ccc(Cl)cc1
IC50 [2]: > 100 µM | inhibition at 0.25 µM [3]: > 50%

IC50 [1]: 2160 nM | IC50 [4]: 2.9 µM
SMILES: O=C(Cn1cc(COc2cccc3ccccc23)nn1)Nc1ccc(Cl)cc1
IC50 [2]: > 100 µM | inhibition at 2.5 µM [5]: 50%

IC50 [6]: 3.46 µM | IC50 [7]: 2870 nM | IC50 [8]: 2860 nM | IC50 [9]: 2130 nM | IC50 [10]: 2430 nM
SMILES: C=C(C)[C@H](CC=C(C)C)C[C@]12C[C@H](CC=C(C)C)C(C)(C)[C@](CC=C(C)C)(C(=O)C(C(=O)c3ccc(O)c(O)c3)=C1O)C2=O

IC50 [1]: 730 nM | IC50 [12]: 1160 nM
SMILES: O=C(CCl)Nc1ccc2c(c1)CCC2
inhibition at 0.025 µM [11]: > 50%

SMILES: Oc1ccc(/C=C/c2cc(O)cc(O)c2)cc1 [RESVERATROL]
IC50 [13]: 28.6 µM | Ratio IC50 [14]: >40 | Ratio IC50 [15]: >40 | IC50 [16]: 20.6 µM

IC50 [17]: 330 nM | IC50 [12]: 270 nM
SMILES: N#Cc1c(NC(=O)CCl)sc2c1CCCC2
inhibition at 0.025 µM [11]: > 50%

SMILES: CC(=O)c1cc2c(o1)C(=O)c1ccccc1C2=O [NAPABUCASIN]
Time [18]: 5.1 months
